Where two headings read alike, the source gives them in different places. Bridge positions count the residues as written; N and C are the ends. Ends that are not written are not given here. Peptide text beside a SMILES is read from it.
Experiments:
[1] = molecular target: Cathepsin G (Homo sapiens, UniProt P08311); experiment: biochemical
[2] = molecular target: Chymase (Homo sapiens, UniProt P23946); experiment: biochemical
[3] = test system: V2R versus V1a; conditions: cited from earlier work
[4] = molecular target: Caspase 6 (Homo sapiens, UniProt P55212); experiment: biochemical
[5] = molecular target: Caspase 7 (Homo sapiens, UniProt P55210); assay type: biochemical; conditions: read-out: Compound IC50
[6] = molecular target: Cathepsin B (Homo sapiens, UniProt P07858); assay type: biochemical; conditions: read-out: Compound IC50
[7] = molecular target: Cathepsin C (Homo sapiens, UniProt P53634); experiment: biochemical
Chain of Cathepsin C (P53634 25-143): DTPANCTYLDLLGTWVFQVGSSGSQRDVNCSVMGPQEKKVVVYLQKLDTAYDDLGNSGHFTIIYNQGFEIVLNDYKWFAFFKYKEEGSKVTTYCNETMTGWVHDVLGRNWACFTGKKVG
Chain of Cathepsin C (P53634 231-394): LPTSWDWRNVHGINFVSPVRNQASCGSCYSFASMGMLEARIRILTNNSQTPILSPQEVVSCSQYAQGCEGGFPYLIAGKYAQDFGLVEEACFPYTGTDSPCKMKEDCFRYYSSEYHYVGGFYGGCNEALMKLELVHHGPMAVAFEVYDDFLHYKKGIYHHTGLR
Chain of Cathepsin C (P53634 395-463): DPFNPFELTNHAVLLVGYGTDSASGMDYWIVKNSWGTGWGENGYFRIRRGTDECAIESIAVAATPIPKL

[8] = molecular target: Cathepsin H (Homo sapiens, UniProt P09668); assay type: biochemical; conditions: read-out: Compound IC50
[9] = molecular target: Cathepsin L (Homo sapiens, UniProt P07711); assay type: biochemical; conditions: read-out: Compound IC50
[10] = molecular target: Cathepsin S (Homo sapiens, UniProt P25774); assay type: biochemical; conditions: read-out: Compound IC50
[11] = molecular target: Cathepsin V (Homo sapiens, UniProt O60911); assay type: biochemical; conditions: read-out: Compound IC50
[12] = molecular target: Papain (Carica papaya, UniProt P00784); experiment: biochemical
Chain of Papain (P00784 134-345): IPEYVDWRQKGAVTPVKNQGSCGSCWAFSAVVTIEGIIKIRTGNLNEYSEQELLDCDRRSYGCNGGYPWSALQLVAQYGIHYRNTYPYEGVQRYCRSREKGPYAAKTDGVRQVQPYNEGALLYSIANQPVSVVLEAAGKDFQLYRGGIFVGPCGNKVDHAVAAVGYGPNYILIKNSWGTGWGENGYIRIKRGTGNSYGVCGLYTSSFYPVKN

[13] = molecular target: Caspase 1 (Homo sapiens, UniProt P29466); experiment: biochemical
Chain of Caspase 1 (P29466 120-404): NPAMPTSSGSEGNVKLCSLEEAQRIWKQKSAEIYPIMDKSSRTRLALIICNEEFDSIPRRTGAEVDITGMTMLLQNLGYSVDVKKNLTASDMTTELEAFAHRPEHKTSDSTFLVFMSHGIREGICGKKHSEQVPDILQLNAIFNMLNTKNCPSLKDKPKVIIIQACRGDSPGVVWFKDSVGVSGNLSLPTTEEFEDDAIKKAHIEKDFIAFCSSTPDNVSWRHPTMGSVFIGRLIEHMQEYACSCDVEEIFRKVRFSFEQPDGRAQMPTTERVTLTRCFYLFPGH

[14] = molecular target: Caspase 2 (Homo sapiens, UniProt P42575); experiment: biochemical
Chain of Caspase 2 (P42575 167-333): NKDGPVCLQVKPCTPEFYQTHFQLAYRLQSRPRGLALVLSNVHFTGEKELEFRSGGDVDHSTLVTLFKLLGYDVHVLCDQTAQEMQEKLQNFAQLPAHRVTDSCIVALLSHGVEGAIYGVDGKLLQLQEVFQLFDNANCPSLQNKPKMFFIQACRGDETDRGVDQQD
Chain of Caspase 2 (P42575 348-452): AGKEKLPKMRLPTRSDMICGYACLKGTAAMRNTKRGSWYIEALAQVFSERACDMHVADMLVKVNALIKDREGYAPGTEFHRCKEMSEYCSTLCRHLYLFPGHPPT

[15] = molecular target: Caspase 4 (Homo sapiens, UniProt P49662); assay type: biochemical; conditions: read-out: Compound IC50
[16] = molecular target: Caspase 5 (Homo sapiens, UniProt P51878); experiment: biochemical
[17] = molecular target: Caspase 8 (Homo sapiens, UniProt Q14790); assay type: biochemical; conditions: read-out: Compound IC50
[18] = molecular target: Caspase 9 (Homo sapiens, UniProt P55211); experiment: biochemical
[19] = molecular target: Caspase 10 (Homo sapiens, UniProt Q92851); experiment: biochemical
Chain of Caspase 10 (Q92851-2 with tags, fused parts or gaps limits assumed): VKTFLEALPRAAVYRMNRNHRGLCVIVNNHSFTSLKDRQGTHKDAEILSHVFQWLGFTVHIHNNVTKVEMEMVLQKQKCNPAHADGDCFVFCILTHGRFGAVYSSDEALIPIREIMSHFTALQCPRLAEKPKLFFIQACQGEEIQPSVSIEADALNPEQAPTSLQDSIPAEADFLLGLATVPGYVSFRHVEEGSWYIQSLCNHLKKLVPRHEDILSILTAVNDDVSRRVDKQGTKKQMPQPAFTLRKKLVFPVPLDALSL

[20] = molecular target: Caspase 11 (Mus musculus, UniProt P70343); experiment: biochemical
Chain of Caspase 11 (P70343 102-373): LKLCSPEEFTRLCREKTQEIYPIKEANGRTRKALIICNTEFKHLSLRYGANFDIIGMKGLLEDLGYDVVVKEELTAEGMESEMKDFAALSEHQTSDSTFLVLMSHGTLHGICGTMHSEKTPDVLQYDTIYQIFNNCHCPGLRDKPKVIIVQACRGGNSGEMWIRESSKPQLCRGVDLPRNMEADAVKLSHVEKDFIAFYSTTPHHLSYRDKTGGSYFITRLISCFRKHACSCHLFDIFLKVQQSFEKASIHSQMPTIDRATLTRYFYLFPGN

[21] = molecular target: Kallikrein 1 (Homo sapiens, UniProt P06870); experiment: biochemical
[22] = molecular target: Proteinase A (Bacillus licheniformis, UniProt P00780); experiment: biochemical; parameters: species or system Bacillus Iicheniformis
[23] = molecular target: human Arginine Vasopressin Receptor 2A (AVPR2A) (Homo sapiens, UniProt P30518); experiment: cell-based
[24] = molecular target: Chymotrypsin (Bos taurus, UniProt P00766); experiment: biochemical; parameters: species or system Bovine
[25] = molecular target: Elastase (Homo sapiens, UniProt P08246); experiment: biochemical
Chain of Elastase (P08246 30-247): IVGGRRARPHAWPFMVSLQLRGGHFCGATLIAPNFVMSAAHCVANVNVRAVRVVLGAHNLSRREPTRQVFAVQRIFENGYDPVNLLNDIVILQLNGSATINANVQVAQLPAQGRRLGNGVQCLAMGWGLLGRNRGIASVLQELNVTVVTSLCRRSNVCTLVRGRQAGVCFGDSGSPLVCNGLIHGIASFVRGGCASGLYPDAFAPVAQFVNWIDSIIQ

[26] = molecular target: Kallikrein 5 (Homo sapiens, UniProt Q9Y337); experiment: biochemical
[27] = molecular target: Kallikrein 7 (Homo sapiens, UniProt P49862); experiment: biochemical
Chain of Kallikrein 7 (P49862 30-252): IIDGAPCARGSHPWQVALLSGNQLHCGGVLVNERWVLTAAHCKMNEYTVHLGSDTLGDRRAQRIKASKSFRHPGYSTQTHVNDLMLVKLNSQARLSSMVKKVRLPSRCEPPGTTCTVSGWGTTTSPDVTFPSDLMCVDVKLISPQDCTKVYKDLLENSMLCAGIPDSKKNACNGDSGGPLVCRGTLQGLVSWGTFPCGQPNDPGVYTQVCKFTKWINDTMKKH

[28] = molecular target: Matriptase 2 (Homo sapiens, UniProt Q8IU80); experiment: biochemical
Chain of Matriptase 2 (Q8IU80 78-811): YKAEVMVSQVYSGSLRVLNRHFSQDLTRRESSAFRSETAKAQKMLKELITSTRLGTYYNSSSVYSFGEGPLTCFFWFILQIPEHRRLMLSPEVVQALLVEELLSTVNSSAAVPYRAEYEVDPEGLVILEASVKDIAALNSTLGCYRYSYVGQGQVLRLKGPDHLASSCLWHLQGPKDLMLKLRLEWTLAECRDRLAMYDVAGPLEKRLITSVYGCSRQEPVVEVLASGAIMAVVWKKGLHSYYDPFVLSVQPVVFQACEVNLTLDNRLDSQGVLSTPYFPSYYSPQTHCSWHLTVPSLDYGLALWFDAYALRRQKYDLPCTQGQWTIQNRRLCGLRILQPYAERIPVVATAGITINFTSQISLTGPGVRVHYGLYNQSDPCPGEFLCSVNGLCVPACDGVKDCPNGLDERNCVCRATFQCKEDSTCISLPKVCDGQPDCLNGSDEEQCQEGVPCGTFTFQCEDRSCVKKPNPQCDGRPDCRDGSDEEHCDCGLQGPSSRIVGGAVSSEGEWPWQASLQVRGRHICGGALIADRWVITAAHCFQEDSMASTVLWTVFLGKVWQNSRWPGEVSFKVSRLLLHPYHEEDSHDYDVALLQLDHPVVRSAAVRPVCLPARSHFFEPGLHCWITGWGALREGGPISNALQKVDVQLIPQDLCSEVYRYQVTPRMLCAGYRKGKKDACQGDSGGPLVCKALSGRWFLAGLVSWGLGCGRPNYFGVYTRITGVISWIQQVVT

[29] = molecular target: Plasma Kallikrein (Homo sapiens, UniProt P03952); experiment: biochemical
Chain of Plasma Kallikrein (P03952 20-390): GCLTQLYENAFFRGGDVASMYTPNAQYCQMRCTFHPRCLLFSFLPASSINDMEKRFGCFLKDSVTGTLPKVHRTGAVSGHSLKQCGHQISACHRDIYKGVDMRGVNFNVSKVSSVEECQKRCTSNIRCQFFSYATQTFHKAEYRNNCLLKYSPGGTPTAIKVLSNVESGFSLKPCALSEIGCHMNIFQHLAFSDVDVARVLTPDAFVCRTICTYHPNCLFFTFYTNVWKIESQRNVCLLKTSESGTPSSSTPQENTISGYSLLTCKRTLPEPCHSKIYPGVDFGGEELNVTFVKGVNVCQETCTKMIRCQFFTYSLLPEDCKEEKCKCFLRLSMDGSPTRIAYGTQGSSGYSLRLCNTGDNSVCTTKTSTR
Chain of Plasma Kallikrein (P03952 391-638): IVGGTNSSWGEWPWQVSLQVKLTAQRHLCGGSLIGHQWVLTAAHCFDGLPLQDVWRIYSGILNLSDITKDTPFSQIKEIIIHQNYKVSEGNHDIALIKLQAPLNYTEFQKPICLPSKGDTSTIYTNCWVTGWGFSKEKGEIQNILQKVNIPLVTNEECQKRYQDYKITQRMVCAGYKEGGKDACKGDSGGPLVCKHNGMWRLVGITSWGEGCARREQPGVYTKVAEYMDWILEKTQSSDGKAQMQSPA

[30] = molecular target: Trypsin (Bos taurus, UniProt P00760); experiment: biochemical; parameters: species or system Bovine
Chain of Trypsin (P00760 24-246): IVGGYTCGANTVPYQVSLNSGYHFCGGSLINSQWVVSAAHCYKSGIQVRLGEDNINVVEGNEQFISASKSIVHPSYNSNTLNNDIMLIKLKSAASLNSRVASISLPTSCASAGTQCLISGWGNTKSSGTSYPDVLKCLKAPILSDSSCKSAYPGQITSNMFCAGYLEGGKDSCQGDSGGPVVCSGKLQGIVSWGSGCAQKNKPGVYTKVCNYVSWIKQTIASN

[31] = molecular target: Tryptase b2 (Homo sapiens, UniProt P20231); experiment: biochemical
Chain of Tryptase b2 (P20231 31-275): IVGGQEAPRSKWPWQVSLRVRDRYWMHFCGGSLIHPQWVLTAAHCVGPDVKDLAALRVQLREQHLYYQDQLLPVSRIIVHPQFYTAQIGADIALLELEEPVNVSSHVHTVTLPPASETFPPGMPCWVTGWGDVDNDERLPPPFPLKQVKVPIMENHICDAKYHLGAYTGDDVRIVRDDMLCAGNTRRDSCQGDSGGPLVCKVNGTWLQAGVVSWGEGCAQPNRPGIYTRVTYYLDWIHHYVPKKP

[32] = molecular target: Tryptase g1; assay type: biochemical, Human; conditions: read-out: Compound IC50
[33] = test system: 156 other GPCRs, including V1aR, V1bR and OTR; conditions: cited from earlier work
[34] = test system: DDAVP-induced hyponatremia in Sprague-Dawley rats; conditions: rat, in vivo
[35] = molecular target: FXa (Homo sapiens, UniProt P00742); assay type: biochemical; conditions: read-out: Compound IC50
[36] = molecular target: Kallikrein 12 (Homo sapiens, UniProt Q9UKR0); assay type: biochemical; conditions: read-out: Compound IC50
[37] = molecular target: Kallikrein 13 (Homo sapiens, UniProt Q9UKR3); assay type: biochemical; conditions: read-out: Compound IC50
[38] = molecular target: Kallikrein 14 (Homo sapiens, UniProt Q9P0G3); assay type: biochemical; conditions: read-out: Compound IC50
[39] = molecular target: Plasmin (Homo sapiens, UniProt P00747); assay type: biochemical; conditions: read-out: Compound IC50
[40] = molecular target: Thrombin A (Homo sapiens, UniProt P00734); assay type: biochemical; conditions: read-out: Compound IC50
[41] = molecular target: Urokinase (Homo sapiens, UniProt P00749); assay type: biochemical; conditions: read-out: Compound IC50
[42] = molecular target: human vasopressin-2 receptor (V2R) (Homo sapiens, UniProt P30518); experiment: biochemical; assay type: binding
Chain of human vasopressin-2 receptor (V2R) (P30518 whole entry): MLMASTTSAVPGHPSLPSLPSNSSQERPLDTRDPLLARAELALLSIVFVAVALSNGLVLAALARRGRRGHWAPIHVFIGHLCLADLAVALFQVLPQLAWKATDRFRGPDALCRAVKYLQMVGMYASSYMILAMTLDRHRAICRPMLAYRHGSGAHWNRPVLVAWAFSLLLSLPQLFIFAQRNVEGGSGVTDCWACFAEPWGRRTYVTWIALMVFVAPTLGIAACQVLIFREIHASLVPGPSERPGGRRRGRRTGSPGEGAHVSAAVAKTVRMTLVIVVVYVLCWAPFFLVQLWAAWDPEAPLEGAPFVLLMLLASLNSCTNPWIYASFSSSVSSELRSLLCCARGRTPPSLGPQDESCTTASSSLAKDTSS

Chain of Cathepsin G (P08311 21-244): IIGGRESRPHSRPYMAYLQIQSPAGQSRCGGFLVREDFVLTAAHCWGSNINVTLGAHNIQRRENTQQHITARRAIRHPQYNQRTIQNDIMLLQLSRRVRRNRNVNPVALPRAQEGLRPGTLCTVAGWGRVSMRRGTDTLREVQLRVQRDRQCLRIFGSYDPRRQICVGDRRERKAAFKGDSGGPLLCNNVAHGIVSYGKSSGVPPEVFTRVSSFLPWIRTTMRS
Chain of Chymase (P23946 22-247): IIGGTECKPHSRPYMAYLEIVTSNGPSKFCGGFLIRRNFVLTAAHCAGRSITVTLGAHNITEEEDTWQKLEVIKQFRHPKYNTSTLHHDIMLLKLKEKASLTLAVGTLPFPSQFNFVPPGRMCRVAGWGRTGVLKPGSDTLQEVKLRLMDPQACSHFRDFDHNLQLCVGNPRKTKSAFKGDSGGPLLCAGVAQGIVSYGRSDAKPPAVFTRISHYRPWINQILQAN

CC(C)C[C@H](NC(=O)[C@@H](NC(=O)N[C@@H](Cc1ccccc1)C(=O)O)[C@@H]1CCN=C(N)N1)C(=O)N[C@H](C=O)Cc1ccccc1 [Chymostatin] gave an IC50 [1] of 236 nM and an IC50 [2] of 19.9 nM.

For Cc1nc2c([nH]1)-c1ccccc1N(C(=O)c1ccc(NC(=O)c3ccccc3-c3ccccc3)cc1)CC2 [Conivaptan], the V2/Vla selectivity index [3] is listed as 0.15.

In the case of CC(=O)N[C@@H](CC(=O)O)C(=O)N[C@@H](CCC(=O)O)C(=O)N[C@H](C(=O)N[C@H](C=O)CC(=O)O)C(C)C [DEVD-CHO], the IC50 ([4]; read-out: Compound IC50) is reported as 26.5 nM and the IC50 [5] is reported as 5.11 nM.

Work on CC(C)C[C@H](NC(=O)[C@H]1O[C@@H]1C(=O)O)C(=O)NCCCCN=C(N)N [E64] yielded an IC50 [6] of 5.1 nM, an IC50 ([7]; read-out: Compound IC50) of 590 nM and an IC50 [8] of 67.1 nM. The IC50 [9] was 1.96 nM, the IC50 [10] was 5.43 nM and the IC50 [11] was 19.7 nM. For the same molecule, the IC50 ([12]; read-out: Compound IC50) was 0.118 nM.

For CC[C@H](C)[C@H](NC(C)=O)C(=O)N[C@@H](CCC(=O)O)C(=O)N[C@H](C(=O)N[C@H](C=O)CC(=O)O)[C@@H](C)O [IETD-CHO] (Ac-IETD-aldehyde), the IC50 ([13]; read-out: Compound IC50) was 89.3 nM, the IC50 ([14]; read-out: Compound IC50) was 646 nM and the IC50 [15] was 2180 nM. For the same molecule, the IC50 ([16]; read-out: Compound IC50) was 38.3 nM, the IC50 [17] was 2.52 nM and the IC50 ([18]; read-out: Compound IC50) was 51.5 nM. For the same molecule, the IC50 ([19]; read-out: Compound IC50) was 28.3 nM and the IC50 ([20]; read-out: Compound IC50) was 934 nM.

CC(=O)N[C@@H](CC(C)C)C(=O)N[C@@H](CC(C)C)C(=O)N[C@H](C=O)CCCNC(=N)N [Leupeptin] gave an IC50 [21] of 296 nM and an IC50 [22] of 31500 nM.

In the case of CCOc1ccc2c(c1)C1(CCC(OCCN3CCOCC3)CC1)C(=O)N2S(=O)(=O)c1ccc(C(=O)NC(C)(C)C)cc1OC (stereo not drawn) [Satavaptan], the V2/Vla selectivity index [3] is given as 112.

For CC[C@H](C)[C@@H]1NC(=O)[C@H]([C@@H](C)O)NC(=O)[C@H](CO)NC(=O)[C@H](Cc2ccccc2)NC(=O)[C@H](CCCNC(=N)N)NC(=O)[C@H](CC(N)=O)NC(=O)[C@H](C)NC(=O)[C@H](CC(N)=O)NC(=O)CNC(=O)[C@H](CCCCN)NC(=O)[C@@H]2CSSC[C@@H]3NC(=O)[C@@H]4CCCN4C(=O)CNC(=O)[C@@H]4CCCN4C(=O)[C@H](CCCCN)NC(=O)[C@H](C(C)C)NC(=O)[C@@H]4CCCN4C(=O)[C@H](CC(C)C)NC(=O)[C@H](CC(N)=O)NC(=O)[C@@H](NC(=O)[C@H](Cc4ccccc4)NC(=O)[C@H](CO)NC(=O)[C@@H]4CCCN4C(=O)[C@@H](N)CCCNC(=N)N)CSSC[C@@H](C(=O)N[C@H](C(=O)NCC(=O)O)C(C)C)NC(=O)[C@H]([C@@H](C)O)NC(=O)[C@H](CCCNC(=N)N)NC(=O)[C@H](CCCNC(=N)N)NC(=O)[C@H](CSSC[C@H](NC(=O)[C@H](CCCCN)NC(=O)[C@H](CC(N)=O)NC(=O)[C@H]([C@@H](C)O)NC(=O)[C@H](CCCCN)NC(=O)[C@H](CCC(N)=O)NC(=O)[C@H](CO)NC(=O)[C@H](Cc4ccc(O)cc4)NC(=O)[C@H](Cc4ccc(O)cc4)NC(=O)[C@H](Cc4ccccc4)NC(=O)[C@H](C)NC(=O)[C@H](CO)NC(=O)[C@H](Cc4ccccc4)NC(=O)[C@H](Cc4ccccc4)NC(=O)CNC(=O)[C@H](CC(N)=O)NC3=O)C(=O)N[C@@H](Cc3c[nH]cn3)C(=O)N[C@@H](CO)C(=O)N[C@@H](Cc3ccccc3)C(=O)N[C@@H]([C@@H](C)O)C(=O)N[C@@H](Cc3ccc(O)cc3)C(=O)NCC(=O)NCC(=O)N2)NC(=O)[C@H](CCCCN)NC(=O)[C@H](CCC(=O)O)NC1=O [WT MQ1 peptide, mambaquaretin], the IC50 [23] was 192 nM, the IC50 [13] was 37100 nM and the IC50 [14] was 42500 nM. The IC50 [16] was over 50000 nM, the IC50 [4] was over 50000 nM and the IC50 [18] was 8940 nM. It also gave an IC50 [19] of 9330 nM, an IC50 [20] of 14000 nM and an IC50 [7] of 45900 nM. The IC50 [1] was 8540 nM, the IC50 [2] was 18200 nM and the IC50 [24] was 2740 nM. For the same molecule, the IC50 [25] was over 50000 nM, the IC50 [26] was 5770 nM and the IC50 [27] was 3650 nM. The IC50 [28] was 116 nM, the IC50 [12] was 17600 nM and the IC50 [29] was 3890 nM. The IC50 [30] was 3690 nM, the IC50 [31] was 3630 nM and the IC50 [32] was over 50000 nM. For the same molecule, the “affinity for 156 other GPCRs” value [33] was “no affinity at μM concentrations”.

With Cc1ccccc1C(=O)Nc1ccc(C(=O)N2CCCC(O)c3cc(Cl)ccc32)c(C)c1 (stereo not drawn) [tolvaptan] the “plasmatic sodium concentration versus vehicle-treated group” value [34] was “significantly different from values on the vehicle-treated group”.

Molecule “Gabexate mesylate [Gabexate mesylate (GM)]” has an IC50 ([25]; read-out: Compound IC50) of 216 nM, an IC50 [35] of 4470 nM and an IC50 ([26]; read-out: Compound IC50) of 697 nM. For the same molecule, the IC50 ([27]; read-out: Compound IC50) was 46500 nM, the IC50 [36] was 65.4 nM and the IC50 [37] was 11800 nM. For the same molecule, the IC50 [38] was 672 nM, the IC50 ([28]; read-out: Compound IC50) was 315 nM and the IC50 ([29]; read-out: Compound IC50) was 30.3 nM. The IC50 [39] was 344 nM, the IC50 [40] was 3160 nM and the IC50 ([30]; read-out: Compound IC50) was 11.2 nM. It also gave an IC50 ([31]; read-out: Compound IC50) of 19.8 nM, an IC50 [32] of 10.1 nM and an IC50 [41] of 614 nM.

With “RPSFCNLPVAPGPCNGFFSAFYYSQKTNKCHSFTYGGCKGNANRFSTLEKCRRTCVG (disulfide 5-55, 14-38, 30-51) [K10A]” the Ki [42] was 9.38 nM.

“RPSFCNLPVEPGPCNGFFSAFYYSQKTNKCHSFTYGGCKGNANRFSTLEKCRRTCVG (disulfide 5-55, 14-38, 30-51) [K10E]” showed a Ki [42] of 337 nM.

In the case of “RPSFCNLPVKPGPCNGFFSAFYYSQKTNKCHSFTYGGCKGAANRFSTIEKCRRTCVG (disulfide 5-55, 14-38, 30-51) [N41A]”, the Ki [42] is reported as 8.49 nM.

Molecule “RPSFCNLPVKPGPCNGFFSAFYYSQKTNKCHSFTYGGCKGNANAFSTLEKCRRTCVG (disulfide 5-55, 14-38, 30-51) [R44A]” has a Ki [42] of 13.3 nM.

In the case of “RPSFCNLPVKPGPCNGFFSAFYYSQKTNKCHSFTYGGCKGNANEFSTLEKCRRTCVG (disulfide 5-55, 14-38, 30-51) [R44E]”, the Ki [42] is reported as 99.3 nM.

Source: patent US12595288B2 (priority 2020, dated 2026)
